Assay results reported in ChEMBL document CHEMBL5579840, “Optimization of diastereomeric dihydropyridines as antimalarials” (Eur J Med Chem, 2024).

Assays:
[1] = tested on: Plasmodium falciparum; experiment: Antimalarial activity against chloroquine-resistant Plasmodium falciparum K1 infected in erythroctes incubated for 72 hrs by SYBR green 1 based spectrofluorometer; format: functional, organism-based, Erythrocyte; conditions: erythrocyte
[2] = tested on: Plasmodium falciparum; experiment: Antimalarial activity against chloroquine-sensitive Plasmodium falciparum 3D7 infected in erythroctes incubated for 72 hrs by SYBR green 1 based spectrofluorometer; format: functional, organism-based, Erythrocyte; conditions: erythrocyte

SMILES	EC50 [1] [nM]	EC50 [2] [nM]
CCOC(=O)C1=C(c2ccccc2)NC2=C(C(=O)CC(c3ccc(OC)c(OC)c3)C2)C1c1ccccc1Cl (mixture of isomers)	92.3	176
CCOC(=O)C1=C(C)NC2=C(C(=O)CC(c3ccc(OC)c(OC)c3)C2)C1c1ccc(Cl)cc1C (mixture of isomers)	38.5	55.1
CCCC1=C(C(=O)OCC)C(c2ccccc2Cl)C2=C(CC(c3ccc(OC)c(OC)c3)OC2=O)N1 (mixture of isomers)	15.5	29
CCCOC(=O)C1=C(C)NC2=C(C(=O)OC(c3ccc(OC)c(OC)c3)C2)C1c1ccccc1Cl (mixture of isomers)	1630	1670
CCOC(=O)C1=C(C)NC2=C(C(=O)OC(c3ccc(OC)c(OC)c3)C2)C1c1ccc(Cl)cc1C (mixture of isomers)	46.8	19.5
COc1ccc(C2CC3=C(C(=O)O2)C(c2ccccc2Cl)C(C(=O)OCc2ccccc2)=C(C)N3)cc1OC (mixture of isomers)	> 7500	> 7500
CCOC(=O)C1=C(C)NC2=C(C(=O)OC(c3ccc(OC)c(OC)c3)C2)C1c1ccc(Br)cc1 (mixture of isomers)	634	213
COC(=O)C1=C(C)NC2=C(C(=O)OC(c3ccc(OC)c(OC)c3)C2)C1c1ccccc1Cl (mixture of isomers)	> 9400	> 9400
CCOC(=O)C1=C(C(=O)OCC)C(c2ccccc2Cl)C2=C(CC(c3ccc(OC)c(OC)c3)OC2=O)N1 (mixture of isomers)	22.2	58.7
CCOC(=O)C1=C(C)NC2=C(C(=O)OC(c3ccc(OC)c(OC)c3)C2)C1c1ccccc1C (mixture of isomers)	123	72.7
CCOC(=O)C1=C(C)NC2=C(C(=O)OC(c3ccccc3)C2)C1c1ccccc1Cl (mixture of isomers)	–	> 10000
CCOC(=O)C1=C(C)NC2=C(C(=O)OC(c3ccc(OC)c(OC)c3)C2)C1c1ccccc1Cl (mixture of isomers)	323	372
COc1ccc(C2CC3=C(C(=O)O2)C(c2ccccc2Cl)C(C(=O)OC(C)(C)C)=C(C)N3)cc1OC (mixture of isomers)	2650	–
CCOC(=O)C1=C(C)NC2=C(C(=O)OC(c3ccc(OC)c(OC)c3)C2)C1c1ccc(C)cc1 (mixture of isomers)	1610	1250
CCOC(=O)C1=C(C)NC2=C(C(=O)OC(c3ccc(OC)c(OC)c3)C2)C1c1ccccc1OC (mixture of isomers)	–	> 5500
CCOC(=O)C1=C(C)NC2=C(C(=O)OC(c3ccc(Cl)cc3)C2)C1c1ccccc1Cl (mixture of isomers)	> 5500	> 5500
CCOC(=O)C1=C(C)NC2=C(C(=O)CC(c3ccc(OC)c(OC)c3)C2)C1c1ccc(Cl)cc1 (mixture of isomers)	18.9	16.3
CCOC(=O)C1=C(C)NC2=C(C(=O)OC(c3ccc(OC)c(OC)c3)C2)C1c1ccccc1 (mixture of isomers)	120	180
CCOC(=O)C1=C(C)NC2=C(C(=O)OC(c3cccc(OC)c3)C2)C1c1ccccc1Cl (mixture of isomers)	> 6000	2420
CCOC(=O)C1=C(C)NC2=C(C(=O)OC(c3ccccc3Cl)C2)C1c1ccccc1Cl (mixture of isomers)	> 6000	> 6000
CCOC(=O)C1=C(C)NC2=C(C(=O)CC(c3ccc(OC)c(OC)c3)C2)C1c1ccccc1Cl (mixture of isomers)	28	17.1
CCOC(=O)C1=C(C)NC2=C(C(=O)OC(c3ccccc3)C2)C1c1ccccc1Cl (stereo in doubt; 17B)	–	> 11000
COc1ccc(C2CC(=O)C3=C(C2)NC(C)=C(C(=O)O)C3c2ccccc2Cl)cc1OC (stereo in doubt; 27B)	–	> 12000
COc1ccc(C2CC3=C(C(=O)O2)C(c2ccccc2Cl)C(C(=O)OC(C)(C)C)=C(C)N3)cc1OC (stereo in doubt; 30B)	272	–
